Assay results taken from ChEMBL document CHEMBL1201862, “PubChem BioAssay data set” (2004).
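Protocol summary: plate cells (96-well), add compound at 5 concentrations, incubate 48 h, interpolate endpoints linearly. GI50: concentration for 50% inhibition of growth.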 Active and inactive are the calls of the source. Rule as the data show it: active = GI50 up to about 1.1 µM and inactive = higher.

Tests used:
Assay in all cases: DTP human tumour cell line panel, 48 h
SNB-75 = test system: SNB-75
UACC-62 = test system: UACC-62
SW-620 = test system: SW-620
NCI-H23 = test system: NCI-H23
OVCAR-4 = test system: OVCAR-4
UACC-257 = test system: UACC-257
K562 = test system: K562
RPMI-8226 = test system: RPMI-8226
HL-60 = test system: HL-60
IGROV-1 = test system: IGROV-1
LOX IMVI = test system: LOX IMVI
MDA-MB-435 = test system: MDA-MB-435
RXF 393 = test system: RXF 393
786-0 = test system: 786-0
MDA-N = test system: MDA-N
A549 = test system: A549
HCT-15 = test system: HCT-15
PC-3 = test system: PC-3
CCRF-CEM = test system: CCRF-CEM
SK-OV-3 = test system: SK-OV-3
HOP-62 = test system: HOP-62
EKVX = test system: EKVX
MOLT-4 = test system: MOLT-4
MDA-MB-231 = test system: MDA-MB-231
HT-29 = test system: HT-29
NCI-H522 = test system: NCI-H522
NCI-H460 = test system: NCI-H460
TK-10 = test system: TK-10
UO-31 = test system: UO-31
HOP-92 = test system: HOP-92
SF-295 = test system: SF-295
SK-MEL-5 = test system: SK-MEL-5
SF-268 = test system: SF-268
NCI-H226 = test system: NCI-H226
SF-539 = test system: SF-539
SK-MEL-2 = test system: SK-MEL-2
SNB-19 = test system: SNB-19
M14 = test system: M14
COLO 205 = test system: COLO 205
HCC 2998 = test system: HCC 2998
KM12 = test system: KM12
U-251 = test system: U-251
SK-MEL-28 = test system: SK-MEL-28
OVCAR-8 = test system: OVCAR-8
Malme-3M = test system: Malme-3M
ACHN = test system: ACHN
Hs-578T = test system: Hs-578T
BT-549 = test system: BT-549
OVCAR-5 = test system: OVCAR-5
NCI/ADR-RES = test system: NCI/ADR-RES
DU-145 = test system: DU-145
OVCAR-3 = test system: OVCAR-3
CAKI-1 = test system: CAKI-1
HCT-116 = test system: HCT-116
SN12C = test system: SN12C
MCF7 = test system: MCF7
A498 = test system: A498
SR = test system: SR

In the case of `O=C(NC(Cc1ccccc1)(Cc1ccc(O)cn1)C(=O)O)c1ccccc1` (stereo unspecified), the GI50 (SNB-75) was 69.2 µM (inactive), the GI50 (UACC-62) was > 100 µM (inactive) and the GI50 (SW-620) was > 100 µM (inactive). The GI50 (NCI-H23) was > 100 µM (inactive), the GI50 (OVCAR-4) was 98.6 µM (inactive) and the GI50 (UACC-257) was > 100 µM (inactive). The GI50 (K562) was > 100 µM (inactive), the GI50 (RPMI-8226) was 49.3 µM (inactive) and the GI50 (HL-60) was 16.5 µM (inactive). For the same compound, the GI50 (IGROV-1) was > 100 µM (inactive), the GI50 (LOX IMVI) was > 100 µM (inactive) and the GI50 (MDA-MB-435) was > 100 µM (inactive). For the same compound, the GI50 (RXF 393) was > 100 µM (inactive), the GI50 (786-0) was > 100 µM (inactive) and the GI50 (MDA-N) was > 100 µM (inactive). For the same compound, the GI50 (A549) was > 100 µM (inactive), the GI50 (HCT-15) was greater than 100 µM and the GI50 (PC-3) was 76.4 µM (inactive). The GI50 (CCRF-CEM) was 25.4 µM (inactive), the GI50 (SK-OV-3) was > 100 µM (inactive) and the GI50 (HOP-62) was > 100 µM (inactive). The GI50 (EKVX) was 55.6 µM (inactive), the GI50 (MOLT-4) was 46.8 µM (inactive) and the GI50 (MDA-MB-231) was > 100 µM (inactive). The GI50 (HT-29) was 42.2 µM (inactive), the GI50 (NCI-H522) was > 100 µM (inactive) and the GI50 (NCI-H460) was > 100 µM (inactive). The GI50 (TK-10) was > 100 µM (inactive), the GI50 (UO-31) was 86.5 µM (inactive) and the GI50 (HOP-92) was 33.8 µM (inactive). For the same compound, the GI50 (SF-295) was 92 µM (inactive), the GI50 (SK-MEL-5) was > 100 µM (inactive) and the GI50 (SF-268) was > 100 µM (inactive). For the same compound, the GI50 (NCI-H226) was 83 µM (inactive), the GI50 (SF-539) was > 100 µM (inactive) and the GI50 (SK-MEL-2) was > 100 µM (inactive). The GI50 (SNB-19) was > 100 µM (inactive), the GI50 (M14) was > 100 µM (inactive) and the GI50 (COLO 205) was 84.7 µM (inactive). The GI50 (HCC 2998) was 99.1 µM (inactive), the GI50 (KM12) was > 100 µM (inactive) and the GI50 (U-251) was > 100 µM (inactive). For the same compound, the GI50 (SK-MEL-28) was > 100 µM (inactive), the GI50 (OVCAR-8) was > 100 µM (inactive) and the GI50 (Malme-3M) was > 100 µM (inactive). For the same compound, the GI50 (ACHN) was > 100 µM (inactive), the GI50 (Hs-578T) was > 100 µM (inactive) and the GI50 (BT-549) was > 100 µM (inactive). The GI50 (OVCAR-5) was > 100 µM (inactive), the GI50 (NCI/ADR-RES) was > 100 µM (inactive) and the GI50 (DU-145) was > 100 µM (inactive). For the same compound, the GI50 (OVCAR-3) was 63 µM (inactive), the GI50 (CAKI-1) was > 100 µM (inactive) and the GI50 (HCT-116) was 58.9 µM (inactive).
In the case of `[N-]=[N+]=C(C(=O)C(=[N+]=[N-])C(=O)c1ccccc1)C(=O)c1ccccc1`, the GI50 (SNB-75) was > 100 µM (inactive), the GI50 (UACC-62) was > 100 µM (inactive) and the GI50 (SW-620) was > 100 µM (inactive). The GI50 (NCI-H23) was > 100 µM (inactive), the GI50 (UACC-257) was > 100 µM (inactive) and the GI50 (K562) was > 100 µM (inactive). The GI50 (RPMI-8226) was > 100 µM (inactive), the GI50 (HL-60) was > 100 µM (inactive) and the GI50 (IGROV-1) was > 100 µM (inactive). The GI50 (LOX IMVI) was > 100 µM (inactive), the GI50 (MDA-MB-435) was > 100 µM (inactive) and the GI50 (RXF 393) was > 100 µM (inactive). The GI50 (786-0) was > 100 µM (inactive), the GI50 (MDA-N) was > 100 µM (inactive) and the GI50 (A549) was > 100 µM (inactive). The GI50 (HCT-15) was greater than 100 µM, the GI50 (PC-3) was > 100 µM (inactive) and the GI50 (HOP-62) was > 100 µM (inactive). The GI50 (EKVX) was > 100 µM (inactive), the GI50 (MDA-MB-231) was > 100 µM (inactive) and the GI50 (HT-29) was > 100 µM (inactive). For the same compound, the GI50 (NCI-H522) was > 100 µM (inactive), the GI50 (NCI-H460) was > 100 µM (inactive) and the GI50 (TK-10) was > 100 µM (inactive). The GI50 (UO-31) was 65.5 µM (inactive), the GI50 (SF-295) was > 100 µM (inactive) and the GI50 (SK-MEL-5) was > 100 µM (inactive). For the same compound, the GI50 (SF-268) was > 100 µM (inactive), the GI50 (SN12C) was > 100 µM (inactive) and the GI50 (SF-539) was > 100 µM (inactive). For the same compound, the GI50 (SK-MEL-2) was > 100 µM (inactive), the GI50 (SNB-19) was > 100 µM (inactive) and the GI50 (M14) was > 100 µM (inactive). The GI50 (COLO 205) was > 100 µM (inactive), the GI50 (HCC 2998) was > 100 µM (inactive) and the GI50 (KM12) was 44.2 µM (inactive). For the same compound, the GI50 (SK-MEL-28) was > 100 µM (inactive), the GI50 (OVCAR-8) was > 100 µM (inactive) and the GI50 (MCF7) was > 100 µM (inactive). For the same compound, the GI50 (Malme-3M) was > 100 µM (inactive), the GI50 (ACHN) was > 100 µM (inactive) and the GI50 (Hs-578T) was > 100 µM (inactive). For the same compound, the GI50 (BT-549) was > 100 µM (inactive), the GI50 (OVCAR-5) was > 100 µM (inactive) and the GI50 (NCI/ADR-RES) was > 100 µM (inactive). For the same compound, the GI50 (DU-145) was > 100 µM (inactive), the GI50 (OVCAR-3) was > 100 µM (inactive) and the GI50 (HCT-116) was > 100 µM (inactive).
With `Cc1cc2c3c(c1)S(=O)(=O)c1cc(Cl)ccc1N3CCC2` the GI50 (SNB-75) was 58.5 µM (inactive), the GI50 (UACC-62) was > 100 µM (inactive) and the GI50 (SW-620) was > 100 µM (inactive). For the same compound, the GI50 (OVCAR-4) was 64.3 µM (inactive), the GI50 (UACC-257) was 60.8 µM (inactive) and the GI50 (K562) was 96.8 µM (inactive). For the same compound, the GI50 (HL-60) was > 100 µM (inactive), the GI50 (IGROV-1) was 84.3 µM (inactive) and the GI50 (LOX IMVI) was > 100 µM (inactive). The GI50 (MDA-MB-435) was > 100 µM (inactive), the GI50 (RXF 393) was 55.2 µM (inactive) and the GI50 (786-0) was 82.2 µM (inactive). The GI50 (MDA-N) was > 100 µM (inactive), the GI50 (A549) was > 100 µM (inactive) and the GI50 (HCT-15) was greater than 100 µM. For the same compound, the GI50 (PC-3) was 88.1 µM (inactive), the GI50 (CCRF-CEM) was > 100 µM (inactive) and the GI50 (SK-OV-3) was > 100 µM (inactive). The GI50 (HOP-62) was 76.7 µM (inactive), the GI50 (EKVX) was > 100 µM (inactive) and the GI50 (MOLT-4) was 57.7 µM (inactive). The GI50 (A498) was > 100 µM (inactive), the GI50 (MDA-MB-231) was 83.9 µM (inactive) and the GI50 (HT-29) was > 100 µM (inactive). For the same compound, the GI50 (NCI-H460) was > 100 µM (inactive), the GI50 (TK-10) was > 100 µM (inactive) and the GI50 (UO-31) was > 100 µM (inactive). The GI50 (HOP-92) was > 100 µM (inactive), the GI50 (SF-295) was 56 µM (inactive) and the GI50 (SK-MEL-5) was > 100 µM (inactive). The GI50 (SF-268) was > 100 µM (inactive), the GI50 (SN12C) was > 100 µM (inactive) and the GI50 (NCI-H226) was > 100 µM (inactive). For the same compound, the GI50 (SF-539) was > 100 µM (inactive), the GI50 (SK-MEL-2) was > 100 µM (inactive) and the GI50 (SNB-19) was > 100 µM (inactive). For the same compound, the GI50 (M14) was > 100 µM (inactive), the GI50 (COLO 205) was > 100 µM (inactive) and the GI50 (HCC 2998) was > 100 µM (inactive). The GI50 (KM12) was > 100 µM (inactive), the GI50 (SR) was > 100 µM (inactive) and the GI50 (SK-MEL-28) was > 100 µM (inactive). For the same compound, the GI50 (OVCAR-8) was > 100 µM (inactive), the GI50 (MCF7) was > 100 µM (inactive) and the GI50 (Malme-3M) was > 100 µM (inactive). For the same compound, the GI50 (ACHN) was > 100 µM (inactive), the GI50 (Hs-578T) was 22 µM (inactive) and the GI50 (BT-549) was > 100 µM (inactive). The GI50 (OVCAR-5) was > 100 µM (inactive), the GI50 (NCI/ADR-RES) was > 100 µM (inactive) and the GI50 (DU-145) was > 100 µM (inactive). For the same compound, the GI50 (OVCAR-3) was > 100 µM (inactive), the GI50 (CAKI-1) was > 100 µM (inactive) and the GI50 (HCT-116) was > 100 µM (inactive).
